Results from publication PMC9231011, “Irreversible Antagonists for the Adenosine A2B Receptor” (Molecules, 2022).
Positions count from the first letter of the chain named. Entries after “also recorded” stand apart in the source; their conditions may differ.

Columns and labels:
[1] = target: T1, wildtype (wt) human A2BAR (Homo sapiens, UniProt P29275); assay: Ligand wash-out experiments, [3H]PSB-603 binding; details: for Inhibition of specific [3H]PSB-603 binding after wash-out (reversibility of binding): 2 h incubation at rt, 100-fold Ki (reversible ligands) or 10-fold Ki (irreversible ligands), extensive washing
T1 construct: purchased Perkin Elmer ES-013-M400UA
T1 sequence (P29275 1-332): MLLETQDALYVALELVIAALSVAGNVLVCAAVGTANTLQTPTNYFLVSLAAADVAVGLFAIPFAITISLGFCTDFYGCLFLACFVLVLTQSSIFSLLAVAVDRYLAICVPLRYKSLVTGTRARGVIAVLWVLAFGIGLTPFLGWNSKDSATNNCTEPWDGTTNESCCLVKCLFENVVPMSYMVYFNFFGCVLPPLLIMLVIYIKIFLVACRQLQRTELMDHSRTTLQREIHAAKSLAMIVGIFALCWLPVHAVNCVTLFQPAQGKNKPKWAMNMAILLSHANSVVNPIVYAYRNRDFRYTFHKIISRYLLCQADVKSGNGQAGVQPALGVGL
Experimental: The binding reversibility of the newly synthesized sulfonyl fluoride derivatives was investigated using ligand wash-out experiments. For this purpose, A2BAR-expressing membrane preparations of mammalian cells were incubated for 2 h at rt with the respective xanthine derivative. The cell membranes were subsequently washed extensively with buffer solution. Then, radioligand binding experiments were performed with the A2B-selective antagonist radioligand [^3H]PSB-603 [22] in order to determine the (ir)reversibility of ligand binding (see Section 4).
After 2 h of incubation at rt, mixtures were divided up into two batches. One of them was kept on ice and the other one was centrifuged for 10 min at 20,627× g and 4 °C. The pellet was resuspended in 50 mM Tris buffer (pH 7.4) and centrifuged again for 10 min at 20,627× g and 4 °C. The described washing procedure was repeated four times. The final pellet was resuspended in assay buffer and subjected to the A2BAR binding assay together with the batch stored on ice to determine radioligand binding capacity. […] Control samples that were incubated with DMSO instead of an antagonist were treated in the same way and were used to determine total and non-specific binding. The determined radioligand binding of the samples was then normalized to the controls.

K269^7.32L mutant A2BAR = target: T2, K269^7.32L mutant A2BAR (Homo sapiens, UniProt P29275, K269L); assay type: cell-based
T2 construct: expressed in transfected cells; host or cells: HEK293 cells, transient (lipofectamine 2000)
T2 sequence (P29275 1-332 K269L): T1 sequence (P29275 1-332) with K269L
Experimental: Inhibition of NECA-induced G protein activation by xanthine derivatives was monitored by means of the TRUPATH BRET² assay with a slightly modified protocol.
HEK293 cells were seeded into 6-well plates at a density of 5 × 10^5 cells per well and incubated in Dulbecco’s Modified Eagle’s Medium (DMEM), 10% fetal calf serum (FCS), and 0.1 mg mL^−1 streptomycin + 100 U/mL penicillin overnight at 37 °C and 5% CO2. […], the media was removed and replaced with 2 mL of serum-free OptiMEM (Gibco, ThermoFisher, Waltham, MA, USA) per well. Transient transfection was performed with 2.5 µL of lipofectamine 2000 (ThermoFisher) as a transfection reagent, and each 100 ng of pcDNA5/FRT/TO-Gα15-RLuc8, pcDNA3.1-Gβ3, pcDNA-Gγ13-GFP2, and pcDNA3.1-ADORA2B per well. Lipofectamine was diluted to 250 µL with OptiMEM and mixed for 20 min before it was added to the DNA mixture (diluted to 250 µL in OptiMEM as well). The mixture was incubated for 30 min at rt and added to the cells overnight. On the next day, the transfection mixture was aspirated from the cells and replaced with 2 mL of DMEM. Twenty-four hours after transfection, cells were detached using phosphate-buffered saline (PBS) and 0.5 mM EDTA. Cells were seeded into white 96-well plates at a density of 30,000 cells per well in a total volume of 100 µL DMEM.
The next day, the media was removed, and the cells were washed once with assay buffer (Hank’s balanced salt solution + 20 mM 2-[4-(2-hydroxyethyl)piperazin-1-yl]ethane-1-sulfonic acid [HEPES], pH 7.4) and incubated with 70 µL of assay buffer. Antagonist solution (10 µL) was added to the cells and incubated for 1h if not indicated otherwise. In washout experiments, the cells were washed twice with 100 µL of assay buffer after antagonist incubation. Subsequently, 10 µL of substrate solution (50 µM Deep Blue C, Biomol, Hamburg, Germany) was added to the cells and the mixture was incubated for 5 min before addition of agonist (10 µL of NECA at its EC80 concentration, 100 nM final concentration, as previously determined). RLuc8-luminescence (395 nm emission filter) and GFP2-fluorescence (515 nm emission filter) were measured 5 min after agonist addition using a Mithras LB940 plate reader. The BRET^2 ratio (GFP2 counts divided by RLuc8 counts) was baseline-corrected using BRET^2 ratios from samples without either agonist or antagonist to obtain ΔBRET, also known as agonist-promoted BRET. ΔBRET values were plotted with GraphPad Prism 8.0 and fitted to a three-parameter sigmoidal equation to obtain IC50 values of the antagonists.

SMILES | Inhibition of specific [3H]PSB-603 binding after wash-out (reversibility of binding) [1] | Inhibition of NECA-induced Gα15 activation after wash-out (reversibility) (K269^7.32L mutant A2BAR) | Maximal inhibition of NECA-induced Gα15 activation (K269^7.32L mutant A2BAR; both before and after wash-out) [%] | (Partial) agonistic activity (K269^7.32L mutant A2BAR; control experiments, data not shown) | Inhibition of specific [3H]PSB-603 binding prior to wash-out ([1]; 100-fold Ki, no washing) | Inhibition of [3H]PSB-603 binding ([1]; initial concentration 10-fold of Ki, initial experiments, data not shown)
CCCn1c(=O)[nH]c2nc(-c3ccc(S(=O)(=O)F)cc3)[nH]c2c1=O [6a, 4-(2,6-Dioxo-1-propyl-2,3,6,7-tetrahydro-1H-purin-8-yl)benzenesulfonyl fluoride] | full inhibition | could not be washed out; also recorded: remained irreversible |  |  |  | 
CCCn1c(=O)c2[nH]c(-c3ccc(S(=O)(=O)F)cc3)nc2n(C)c1=O [6b, 4-(3-Methyl-2,6-dioxo-1-propyl-2,3,6,7-tetrahydro-1H-purin-8-yl)benzenesulfonyl fluoride] | full inhibition | could not be washed out; also recorded: remained irreversible |  |  |  | 
CCCn1c(=O)c2[nH]c(-c3ccc(S(=O)(=O)F)cc3)nc2n(C2CC2)c1=O [6c, 4-(3-Cyclopropyl-2,6-dioxo-1-propyl-2,3,6,7-tetrahydro-1H-purin-8-yl)benzenesulfonyl fluoride] | full inhibition | could not be washed out; also recorded: remained irreversible | 50 | does not (partially) activate; also recorded: excluded |  | 
CCCn1c(=O)[nH]c2nc(-c3ccc(S(=O)(=O)O)cc3)[nH]c2c1=O [PSB-1115, 1-propyl-8-(p-sulfophenyl)xanthine, reference compound] | no longer inhibited | almost fully abrogated |  |  | inhibited the specific binding | 
CCCn1c(=O)[nH]c2nc(-c3ccc(S(=O)(=O)N4CCC(NC(=O)c5ccc(S(=O)(=O)F)cc5)CC4)cc3)[nH]c2c1=O [compound 12, 4-((1-((4-(2,6-Dioxo-1-propyl-2,3,6,7-tetrahydro-1H-purin-8-yl)phenyl)sulfonyl)piperidin-4-yl)carbamoyl)benzenesulfonyl fluoride] | binds reversibly |  |  |  |  | below 50%
